Here are results for seven compounds from patent publication US20260355196A1, “INHIBITORS AND DEGRADERS OF PIP4K PROTEIN” (Larkspur Biosciences, Inc., priority 2023, published 2026).

One may read the DC50 as the concentration at which degradation of the target reaches its halfway point.

This test concerns the target T1, PIP4K2C (Homo sapiens, UniProt Q8TBX8).
T1 sequence (Q8TBX8 1-421): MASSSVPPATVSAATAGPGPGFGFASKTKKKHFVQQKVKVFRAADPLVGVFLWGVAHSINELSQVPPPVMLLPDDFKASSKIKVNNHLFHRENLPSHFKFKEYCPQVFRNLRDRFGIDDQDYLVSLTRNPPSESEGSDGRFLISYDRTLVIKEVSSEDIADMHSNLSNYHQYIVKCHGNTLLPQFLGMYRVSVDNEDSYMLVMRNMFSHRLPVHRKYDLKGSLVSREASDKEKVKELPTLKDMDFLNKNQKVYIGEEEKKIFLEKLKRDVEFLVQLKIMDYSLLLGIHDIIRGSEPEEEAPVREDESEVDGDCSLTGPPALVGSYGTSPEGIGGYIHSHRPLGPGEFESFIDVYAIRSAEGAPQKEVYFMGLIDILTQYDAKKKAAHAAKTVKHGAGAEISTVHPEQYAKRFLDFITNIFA
Kind of test: HiBiT PIP4K2C degradation assay in MOLT-4 cells (endogenous PIP4K2C C-terminally tagged with HiBiT). On the set-up: untagged in primary human PBMCs and monocyte-derived dendritic cells. Type of test: cell-based. The conditions noted are these: 6 hours of incubation time, rather than 24 hours; MOLT-4, top concentration 10 micromolar; read-out: HiBIT-degradation MOLT4 PIP4k2C DC50 (6 hours, marked *). The method in brief:
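Endogenous PIP4K2C was C-terminally HiBiT-tagged by CRISPR-Cas9 in MOLT-4 cells, which were treated with a 10-point, 3-fold dilution series from 10 micromolar in duplicate for 24 or 6 hours at 37 C. Remaining protein was read by HiBiT lytic luminescence, and DC50 came from a Hill fit.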
(With HiBiT, luminescence reflects the tagged protein that the partner subunit can reach.)
With `O=C1CCC(Nc2ccc(N3CCC(N4CCC(NC(=O)[C@H]5CC[C@H](Nc6ncc(F)c(-c7cccc(N8CCOCC8=O)c7)n6)CC5)CC4)CC3)c(F)c2)C(=O)N1` (stereo partly drawn) [Compound 532, trans-N-(1′-(4-((2,6-dioxopiperidin-3-yl)amino)-2-fluorophenyl)-[1,4′-bipiperidin]-4-yl)-4-((5-fluoro-4-(3-(3-oxomorpholino)phenyl)pyrimidin-2-yl)amino)cyclohexane-1-carboxamide], the DC50 was less than 500 nM.
Consider `O=C1CCC(Nc2ccc(N3CCC(N4CCC(NC(=O)[C@H]5CC[C@H](Nc6ncc(F)c(-c7cccc(C8CC8)c7)n6)CC5)CC4)CC3)c(F)c2)C(=O)N1` (stereo partly drawn) [Compound 533, trans-4-((4-(3-cyclopropylphenyl)-5-fluoropyrimidin-2-yl)amino)-N-(1′-(4-((2,6-dioxopiperidin-3-yl)amino)-2-fluorophenyl)-[1,4′-bipiperidin]-4-yl)cyclohexane-1-carboxamide], for which the DC50 was less than 500 nM.
Regarding `Cn1nc(C2CCC(=O)NC2=O)c2ccc(C3CCN(C[C@H]4CC[C@H](C(=O)N[C@H]5CC[C@H](Nc6ncc(F)c(-c7cccc(-n8ccccc8=O)c7)n6)CC5)CC4)CC3)cc21` (stereo partly drawn) [Compound 535, trans-(1r,4R)-4-((4-(3-(2,6-dioxopiperidin-3-yl)-1-methyl-1H-indazol-6-yl)piperidin-1-yl)methyl)-N-((1r,4R)-4-((5-fluoro-4-(3-(2-oxopyridin-1 (2H)-yl)phenyl)pyrimidin-2-yl)amino)cyclohexyl)cyclohexane-1-carboxamide], the DC50 is less than 500 nM.
`O=C1CCC(Nc2ccc(N3CCN([C@H]4CC[C@H](C(=O)N[C@H]5CC[C@H](Nc6ncc(F)c(-c7cccc(N8CCOCC8=O)c7)n6)CC5)CC4)CC3)c(F)c2)C(=O)N1` (stereo partly drawn) [Compound 536, trans-4-(4-(4-((2,6-dioxopiperidin-3-yl)amino)-2-fluorophenyl)piperazin-1-yl)-N-(trans-4-((5-fluoro-4-(3-(3-oxomorpholino)phenyl)pyrimidin-2-yl)amino)cyclohexyl)cyclohexane-1-carboxamide]: the DC50 is less than 500 nM.
As for `O=C1CCC(Nc2ccc(N3CCN([C@H]4CC[C@H](C(=O)N[C@H]5CC[C@H](Nc6ncc(F)c(-c7cccc(C(=O)N8CC[C@H](O)C8)c7)n6)CC5)CC4)CC3)c(F)c2)C(=O)N1` (stereo partly drawn) [Compound 537, trans-4-(4-(4-((2,6-dioxopiperidin-3-yl)amino)-2-fluorophenyl)piperazin-1-yl)-N-(trans-4-((5-fluoro-4-(3-((S)-3-hydroxypyrrolidine-1-carbonyl)phenyl)pyrimidin-2-yl)amino)cyclohexyl)cyclohexane-1-carboxamide], the figure is less than 500 nM; as for `O=C1CCC(Nc2ccc(C3CCN([C@H]4CC[C@H](C(=O)N[C@H]5CC[C@H](Nc6ncc(F)c(-c7cccc(N8CCOCC8=O)n7)n6)CC5)CC4)CC3)c(F)c2)C(=O)N1` (stereo partly drawn) [Compound 538, trans-(1r,4R)-4-(4-(4-((2,6-dioxopiperidin-3-yl)amino)-2-fluorophenyl)piperidin-1-yl)-N-((1r,4R)-4-((5-fluoro-4-(6-(3-oxomorpholino)pyridin-2-yl)pyrimidin-2-yl)amino)cyclohexyl)cyclohexane-1-carboxamide], more than 5000 nM.
Turning to `Cn1nc(N2CCC(=O)NC2=O)c2cc(F)c(C3CCN(CC4CCN(C(=O)[C@H]5CC[C@H](Nc6ncc(F)c(-c7cccc(-n8ccccc8=O)c7)n6)CC5)CC4)CC3)cc21` [Compound 540, trans-1-(5-fluoro-6-(1-((1-((1r,4r)-4-((5-fluoro-4-(3-(2-oxopyridin-1(2H)-yl)phenyl)pyrimidin-2-yl)amino)cyclohexane-1-carbonyl)piperidin-4-yl)methyl)piperidin-4-yl)-1-methyl-1H-indazol-3-yl)dihydropyrimidine-2,4(1H,3H)-dione], the DC50 was more than 5000 nM.
